Results from ChEMBL document CHEMBL1201862, “PubChem BioAssay data set” (2004).
Activity calls are given as the source filed them.

Tests used:
[1] = target: T1, Methionyl-tRNA synthetase, putative (Trypanosoma brucei brucei, UniProt Q38C91); assay type: functional, Trypanosoma brucei brucei strain 927/4 GUTat10.1
T1 sequence (Q38C91 whole entry): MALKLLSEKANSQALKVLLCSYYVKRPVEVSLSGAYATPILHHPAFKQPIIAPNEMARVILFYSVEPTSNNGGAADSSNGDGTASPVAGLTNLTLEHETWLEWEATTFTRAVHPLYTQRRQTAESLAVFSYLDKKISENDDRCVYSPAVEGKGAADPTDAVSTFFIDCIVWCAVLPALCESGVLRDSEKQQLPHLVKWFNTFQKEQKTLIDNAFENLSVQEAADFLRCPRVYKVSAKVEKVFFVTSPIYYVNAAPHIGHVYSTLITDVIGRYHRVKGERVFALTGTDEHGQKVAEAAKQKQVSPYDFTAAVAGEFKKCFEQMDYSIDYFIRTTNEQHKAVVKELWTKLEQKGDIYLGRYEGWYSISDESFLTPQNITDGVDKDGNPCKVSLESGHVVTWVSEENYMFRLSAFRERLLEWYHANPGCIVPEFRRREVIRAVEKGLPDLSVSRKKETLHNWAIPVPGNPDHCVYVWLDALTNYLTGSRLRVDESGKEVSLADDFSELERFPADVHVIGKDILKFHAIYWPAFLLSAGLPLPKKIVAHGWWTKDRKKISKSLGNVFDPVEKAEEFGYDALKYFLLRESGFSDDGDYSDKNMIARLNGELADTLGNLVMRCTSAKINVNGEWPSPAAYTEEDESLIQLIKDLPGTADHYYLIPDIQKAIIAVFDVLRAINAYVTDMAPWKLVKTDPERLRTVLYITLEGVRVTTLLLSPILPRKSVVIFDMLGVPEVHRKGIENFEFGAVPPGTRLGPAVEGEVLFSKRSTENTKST

[2] = target: T1, Methionyl-tRNA synthetase, putative; assay type: functional, Trypanosoma brucei brucei strain 927/4 GUTat10.1; remark: listed apart in the source
[3] = Counterscreen for inhibitors of Trypanosoma brucei methionyl tRNA synthetase (MetRS): Luminescence-based cell-based high throughput dose response assay to identify compounds that are cytotoxic to Jurkat human T lymphocyte cells.; assay type: functional
[4] = tested on: Vero; assay: viability loss in Vero cells – cell-based, plate reader, cherry-pick samples, cytotoxicity control, dose response (AID 687020); assay type: functional; settings: Chlorocebus sabaeus
[5] = tested on: A549; assay: viability loss in A549 cells – cell-based, plate reader, cherry-pick samples, cytotoxicity control, dose response (AID 687028); assay type: functional; settings: Homo sapiens
[6] = target: Paired box protein Pax-8 (Homo sapiens, UniProt Q06710); assay: PAX8 transcriptional activity inhibition in RMG-I – RMG-I cells, luciferase, cherry-pick, dose response (AID 687027); assay type: functional, cell-based;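 also: luciferase reporter driven by Pax8 target thyroperoxidase promoter measured by SteadyGlo luminescence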
Chain of Paired box protein Pax-8 (Q06710 whole entry): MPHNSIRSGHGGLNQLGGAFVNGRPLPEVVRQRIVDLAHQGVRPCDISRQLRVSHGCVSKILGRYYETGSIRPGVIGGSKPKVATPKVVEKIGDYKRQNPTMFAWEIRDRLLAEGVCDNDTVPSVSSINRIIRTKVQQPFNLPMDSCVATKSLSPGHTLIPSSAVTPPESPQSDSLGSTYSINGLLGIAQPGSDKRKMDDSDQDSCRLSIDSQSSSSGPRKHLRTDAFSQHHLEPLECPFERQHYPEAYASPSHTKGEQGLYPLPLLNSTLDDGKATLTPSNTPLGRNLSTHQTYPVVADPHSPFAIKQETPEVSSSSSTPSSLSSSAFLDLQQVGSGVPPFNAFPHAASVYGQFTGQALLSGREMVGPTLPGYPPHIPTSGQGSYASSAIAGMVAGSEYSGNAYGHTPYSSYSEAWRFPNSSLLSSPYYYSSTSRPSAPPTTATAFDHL

[7] = IGROV1 cell killing – plate reader, dry powder samples, PAX8 inhibitor project, dose response (AID 743043); assay type: functional, cell-based; settings: IGROV-1
[8] = general cell-killing toxicity readout – plate reader, dry powder samples, cytotoxicity control for PAX8 inhibitor project, dose response (AID 743021); assay type: functional, cell-based
[9] = OVCAR-3 cell viability loss – plate reader, dry powder samples, PAX8 inhibitor project, dose response (AID 743044); assay type: functional, cell-based
[10] = OVCAR8 cell viability loss – plate reader, dry powder samples, PAX8 project, dose response (AID 743197); assay type: functional, cell-based; settings: OVCAR-8
[11] = viability loss in HepG2 hepatoma cells – cell-based, ATP luminescence, cherry-pick, activator set 2, cytotoxicity control, dose response (AID 1053143); assay type: functional
[12] = target: Beta-galactosidase (Escherichia coli, UniProt Q8VNN2); assay: Dose response counterscreen for EBI2 assay utilizing the enzyme, b-galactosidase.; assay type: functional
Chain of Beta-galactosidase (Q8VNN2 whole entry): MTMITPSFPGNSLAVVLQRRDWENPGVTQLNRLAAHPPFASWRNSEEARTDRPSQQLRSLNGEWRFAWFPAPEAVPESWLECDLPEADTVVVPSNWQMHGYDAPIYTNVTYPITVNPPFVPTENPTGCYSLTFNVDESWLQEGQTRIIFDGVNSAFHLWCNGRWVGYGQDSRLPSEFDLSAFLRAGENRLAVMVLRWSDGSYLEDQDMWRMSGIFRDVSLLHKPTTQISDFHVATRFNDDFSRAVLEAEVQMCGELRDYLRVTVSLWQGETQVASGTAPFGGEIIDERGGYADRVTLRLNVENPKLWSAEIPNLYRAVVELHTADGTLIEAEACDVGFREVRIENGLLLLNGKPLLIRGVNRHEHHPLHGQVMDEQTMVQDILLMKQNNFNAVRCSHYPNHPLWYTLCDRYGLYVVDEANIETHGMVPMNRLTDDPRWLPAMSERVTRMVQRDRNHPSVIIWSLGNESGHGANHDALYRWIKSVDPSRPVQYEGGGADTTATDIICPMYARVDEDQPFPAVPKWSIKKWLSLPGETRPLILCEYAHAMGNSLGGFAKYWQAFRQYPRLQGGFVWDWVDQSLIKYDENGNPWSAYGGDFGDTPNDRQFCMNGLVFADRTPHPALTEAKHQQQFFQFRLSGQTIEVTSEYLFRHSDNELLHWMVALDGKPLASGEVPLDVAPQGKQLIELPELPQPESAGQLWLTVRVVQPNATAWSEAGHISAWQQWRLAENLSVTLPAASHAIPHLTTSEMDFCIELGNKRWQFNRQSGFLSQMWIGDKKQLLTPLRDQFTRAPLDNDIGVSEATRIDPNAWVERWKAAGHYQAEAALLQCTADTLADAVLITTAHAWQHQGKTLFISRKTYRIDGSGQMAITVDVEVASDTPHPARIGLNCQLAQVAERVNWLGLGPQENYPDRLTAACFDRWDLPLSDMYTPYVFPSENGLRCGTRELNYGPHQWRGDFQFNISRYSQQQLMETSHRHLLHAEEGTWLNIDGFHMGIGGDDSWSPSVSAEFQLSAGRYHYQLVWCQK

[13] = blockers of bursicon-stimulated LGR2 cAMP reporter – cell-based, HEK293, CRE-luciferase reporter, cherry pick, set 2, dose response (AID 743343); assay type: functional;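 also: transfected cells were stimulated with diluted bursicon conditioned medium after compound addition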
[14] = A549 cell cytotoxicity, dose response, cytotoxicity control, plate reader, cherry-pick, antagonist series (AID 743412); assay type: functional, cell-based
[15] = viability loss in HEK293 cells – cell-based, plate reader, cherry-picked samples, cytotoxicity control, dose response (AID 743446); assay type: functional
[16] = toxicity toward HepG2 liver cells – cell-based, plate reader, cherry-pick, antagonist series, cytotoxicity control, dose response (AID 743416); assay type: functional
[17] = blockade of melanocortin 4 receptor signaling – cell-based, plate reader, cherry pick, counter-screen for LGR2 antagonist project, dose response (AID 743444); assay type: functional;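 also: transfected HEK 293 cells stimulated with alpha-MSH peptide; potency of inhibitors of the alpha-MSH evoked signal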
[18] = target: T2, Rac GTPase-activating protein 1 (Homo sapiens, UniProt Q9H0H5); assay: blockers of MgcRacGAP-driven Rac1 GTP hydrolysis – biochemical, ADP Hunter fluorescence, primary and confirmatory, confirmation (AID 624330); assay type: functional
T2 sequence (Q9H0H5 whole entry): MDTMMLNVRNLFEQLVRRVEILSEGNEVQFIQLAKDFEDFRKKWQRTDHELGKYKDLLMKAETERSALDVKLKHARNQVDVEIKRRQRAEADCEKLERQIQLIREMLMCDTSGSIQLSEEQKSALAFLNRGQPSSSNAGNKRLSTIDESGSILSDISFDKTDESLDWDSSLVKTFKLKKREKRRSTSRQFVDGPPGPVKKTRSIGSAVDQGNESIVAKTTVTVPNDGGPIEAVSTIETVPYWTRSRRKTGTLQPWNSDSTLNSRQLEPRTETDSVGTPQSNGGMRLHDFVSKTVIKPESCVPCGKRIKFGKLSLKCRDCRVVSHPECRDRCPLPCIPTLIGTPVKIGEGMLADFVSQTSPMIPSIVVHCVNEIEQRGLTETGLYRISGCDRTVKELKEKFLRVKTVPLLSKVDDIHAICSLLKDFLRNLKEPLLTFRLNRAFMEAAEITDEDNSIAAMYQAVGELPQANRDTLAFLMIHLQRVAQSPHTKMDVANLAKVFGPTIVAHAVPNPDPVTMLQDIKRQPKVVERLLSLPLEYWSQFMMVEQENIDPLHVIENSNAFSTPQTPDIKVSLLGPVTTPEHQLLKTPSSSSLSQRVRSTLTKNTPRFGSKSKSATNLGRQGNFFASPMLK

[19] = viability loss in HeLa cells – cytotoxicity control for MgcRacGAP inhibitor project, dose response (AID 624300); assay type: functional
[20] = HIV-1 AD8 envelope cell-cell fusion blockers – cherry-pick, dose response (AID 652062); assay type: functional, cell-based;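 also: luciferase signal from cell-cell fusion driven by HIV-1 clade B AD8 Env; potency is for inhibitors of fusion seen as a drop in luminescence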
[21] = blockers of HIV-1 ZM109 envelope-driven cell-cell fusion – HeLa effector, CEM target cells, luciferase, cherry-pick, dose response (AID 652058); assay type: functional, cell-based;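 also: luciferase signal from HIV-1 Env mediated cell-cell fusion of effector and target cells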
[22] = viability loss in CEM21 cells – cell-based, CellTiter-Glo luminescence, cherry-picked, cytotoxicity control for viral fusion inhibitor project, dose response (AID 652042); assay type: functional;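 also: potency for signal decrease meaning cytotoxicity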
[23] = off-target signal loss in HeLa-CEM21 co-culture – HeLa F-luc CTL cells, cherry-picked, counter-screen for HIV-1 Env fusion inhibitor project, dose response (AID 652040); assay type: functional, cell-based;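 also: potency for signal decrease marking cytotoxic or nonspecific inhibition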
[24] = blockers of HIV-1 envelope-mediated cell-cell fusion – cherry-pick, dose response (AID 652057); assay type: functional, cell-based
[25] = target: Nuclear receptor subfamily 0 group B member 1 (Homo sapiens, UniProt P51843); assay type: functional, cell-based;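 also: HEK293T cells transfected with SF-1 and DAX-1 plus StAR promoter luciferase reporter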
Chain of Nuclear receptor subfamily 0 group B member 1 (P51843 whole entry): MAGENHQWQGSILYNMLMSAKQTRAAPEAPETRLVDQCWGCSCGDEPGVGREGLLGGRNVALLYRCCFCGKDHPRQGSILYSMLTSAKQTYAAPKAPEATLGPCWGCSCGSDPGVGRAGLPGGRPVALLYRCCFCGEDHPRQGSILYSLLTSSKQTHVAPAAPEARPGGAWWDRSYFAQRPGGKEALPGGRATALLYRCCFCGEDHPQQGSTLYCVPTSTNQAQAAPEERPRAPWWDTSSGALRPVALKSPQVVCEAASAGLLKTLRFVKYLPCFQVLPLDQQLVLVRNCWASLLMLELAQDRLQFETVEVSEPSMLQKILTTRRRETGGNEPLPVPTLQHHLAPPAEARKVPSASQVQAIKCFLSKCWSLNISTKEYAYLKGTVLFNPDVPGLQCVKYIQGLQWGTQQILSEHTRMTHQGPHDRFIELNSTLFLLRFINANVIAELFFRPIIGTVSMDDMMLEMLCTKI

[26] = cells; assay type: functional, cell-based
[27] = target: T3, Histone-lysine N-methyltransferase NSD2 (Homo sapiens, UniProt O96028); assay type: biochemical
T3 sequence (O96028 whole entry): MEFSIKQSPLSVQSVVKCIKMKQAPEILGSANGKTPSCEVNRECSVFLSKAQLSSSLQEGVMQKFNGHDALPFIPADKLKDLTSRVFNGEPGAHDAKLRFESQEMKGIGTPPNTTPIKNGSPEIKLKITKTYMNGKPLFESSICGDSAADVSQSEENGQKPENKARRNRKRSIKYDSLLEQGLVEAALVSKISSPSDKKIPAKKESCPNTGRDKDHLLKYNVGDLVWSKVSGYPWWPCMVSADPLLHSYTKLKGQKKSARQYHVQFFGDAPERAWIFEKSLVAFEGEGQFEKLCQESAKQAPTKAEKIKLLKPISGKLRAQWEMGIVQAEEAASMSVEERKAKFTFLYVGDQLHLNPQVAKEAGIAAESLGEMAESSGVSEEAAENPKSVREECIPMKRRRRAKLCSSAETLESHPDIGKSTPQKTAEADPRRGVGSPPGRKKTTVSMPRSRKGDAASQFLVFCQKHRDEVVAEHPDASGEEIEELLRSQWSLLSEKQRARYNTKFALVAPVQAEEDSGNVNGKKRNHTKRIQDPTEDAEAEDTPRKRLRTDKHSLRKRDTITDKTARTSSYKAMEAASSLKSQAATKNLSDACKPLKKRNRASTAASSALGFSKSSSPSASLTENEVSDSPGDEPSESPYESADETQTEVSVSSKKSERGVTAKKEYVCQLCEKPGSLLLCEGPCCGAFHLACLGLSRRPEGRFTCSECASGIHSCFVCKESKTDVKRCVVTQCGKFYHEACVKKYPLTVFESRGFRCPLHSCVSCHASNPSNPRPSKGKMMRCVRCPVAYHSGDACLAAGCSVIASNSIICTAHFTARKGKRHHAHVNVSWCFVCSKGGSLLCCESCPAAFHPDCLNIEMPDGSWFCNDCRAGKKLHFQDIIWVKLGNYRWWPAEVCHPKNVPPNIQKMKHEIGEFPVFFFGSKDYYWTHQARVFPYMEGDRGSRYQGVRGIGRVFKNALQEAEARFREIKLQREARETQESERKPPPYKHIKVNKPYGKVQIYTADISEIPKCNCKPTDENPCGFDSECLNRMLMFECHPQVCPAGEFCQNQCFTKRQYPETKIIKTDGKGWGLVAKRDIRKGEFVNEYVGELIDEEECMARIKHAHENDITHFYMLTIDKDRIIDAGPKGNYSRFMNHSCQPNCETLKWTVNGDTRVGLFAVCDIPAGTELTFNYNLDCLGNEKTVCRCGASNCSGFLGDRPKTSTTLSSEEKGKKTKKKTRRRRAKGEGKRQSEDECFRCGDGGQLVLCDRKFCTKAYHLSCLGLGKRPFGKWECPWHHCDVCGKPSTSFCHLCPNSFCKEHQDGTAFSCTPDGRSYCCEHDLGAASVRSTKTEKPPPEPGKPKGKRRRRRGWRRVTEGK

[28] = general mammalian cell viability loss – activator set, cherry-pick, cytotoxicity control for miR-122 modulator project, dose response (AID 720690); assay type: functional, cell-based;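 also: HEK293T human cells scored for general mammalian cytotoxicity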
[29] = activation of miR-122 Renilla sensor silencing – cell-based, Huh7 psiCHECK-miR122, Renilla luciferase, cherry-picked, dose response (AID 651956); assay type: functional;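 also: huh7 hepatoma cells stably carrying a psiCHECK-2 miR-122 sensor plasmid; renilla luciferase signal reporting endogenous miR-122 activity after 48 h compound exposure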

Compound: COc1cccc(-c2c[nH]c(C(O)c3cc(Cl)cc(Cl)c3)n2)c1 (centres undefined)
- IC50 [1]: 10.3 µM (inactive)
- IC50 [2]: 4.9 µM (active)
- IC50 [3]: 83.3 µM (inactive)

Compound: CC1CCCN(CCOc2cccc(Oc3ccccc3)c2)C1 (centres undefined)
- AC50 [4]: 2.31 µM (active)
- AC50 [5]: 1.65 µM (active)

Compound: O=C(c1ccc(F)cc1)N1CC(=O)N2[C@@H](CO)[C@@H](c3ccc(C#Cc4ccc(F)cc4)cc3)[C@@H]2C1
- AC50 [6]: 9.4 µM (active)
- AC50 [7]: 23 µM (active)
- AC50 [8]: 2.16 µM (active)
- AC50 [9]: 7.81 µM (active)
- AC50 [10]: > 70 µM (inactive)

Compound: CN(C)C(=O)c1ccc(-c2cc3onc(-c4ccccc4)c3c(=O)n2C)cc1
- AC50 [11]: 26 µM (active)

Compound: O=C(COc1ccc(Cl)cc1)N1CCN(C/C=C/c2ccccc2)CC1
- IC50 [12]: > 80 µM (inactive)

Compound: CCN1C(=O)C(CC(=O)Nc2ccc(F)cc2)N(CCc2ccc(OC)cc2)C1=S (centres undefined)
- IC50 [1]: 13.2 µM (inactive)
- IC50 [2]: 10.5 µM (inactive)
- IC50 [3]: 83.3 µM (inactive)

Compound: Oc1nc2ccccc2n1C1CCN(C(CCc2ccccc2)c2nnnn2-c2ccc3c(c2)OCCO3)CC1 (centres undefined)
- AC50 [13]: 9.66 µM (active)
- AC50 [14]: 7.65 µM (active)
- AC50 [6]: 1.54 µM (active)
- AC50 [15]: 14.5 µM (active)
- AC50 [8]: 10.8 µM (active)
- AC50 [16]: 16.5 µM (active)
- AC50 [17]: 2.86 µM (active)

Compound: CCOc1ccc(/C=N/NC(=O)NC23CC4CC(CC(C4)C2)C3)cc1O
- IC50 [18]: 148 µM (active)
- CC50 [19]: 100 µM (active)

Compound: S=C(NCCc1ccccc1)N1Cc2cc(N3CCCCC3)ccc2-n2nncc2C1
- AC50 [20]: 9.73 µM (active)
- AC50 [21]: 9.8 µM (active)
- AC50 [22]: 60.7 µM (active)
- AC50 [23]: 7.92 µM (active)
- AC50 [24]: 5.34 µM (active)

Compound: CCC1CN(S(=O)(=O)c2ccc3c(c2)NC(=O)CC(=O)N3)c2cc(Cl)ccc2O1 (centres undefined)
- AC50 [4]: 27.7 µM (active)
- AC50 [5]: 28.5 µM (active)

Compound: Cc1ccccc1-c1nnc2n1N=C(c1ccc(O)c(O)c1)CS2
- IC50 [25]: > 67.6 µM (inactive)
- IC50 [26]: > 67.6 µM (inactive)
- AC50 [27]: > 20 µM (inactive)

Compound: CN1CCN(Cc2cc(Cl)c3cccnc3c2OC(=O)c2cccs2)CC1
- AC50 [11]: 26 µM (active)

Compound: COc1ccccc1NC(=O)N1CCCCN2[C@H](CO)[C@H](c3ccc(C#CC4CCCC4)cc3)[C@H]2C1
- AC50 [28]: 12.6 µM (active)
- AC50 [29]: 21.9 µM (active)

Compound: O/N=C/c1ccn(-c2ccc(Br)cc2)c1
- IC50 [25]: > 67.5 µM (inactive)
- IC50 [26]: > 67.5 µM (inactive)
